Data taken from the NIST ThermoML archive (doi:10.1016/j.jct.2016.01.001).
Numbers after ± are expanded uncertainties.

Assay: mn = molality of the nth substance listed, in mol/kg
Conditions: 298.15 K, Ring tensiometer

CC(C)Cc1ccc(C(C)C(=O)[O-])cc1.[Na+] (stereo not drawn) [sodium ibuprofen] + O
Conditions	surface tension liquid-gas [mN/m]
m1 = 0.0022	62.35 ± 1.2
m1 = 0.00438	60.76 ± 1.2
m1 = 0.00873	58.91 ± 1.2
m1 = 0.0216	54.52 ± 1.2
m1 = 0.032	51.62 ± 1.2
m1 = 0.0423	48.38 ± 1.3
m1 = 0.0524	45.51 ± 1.2
m1 = 0.0671	42.39 ± 1.2
m1 = 0.0815	40.24 ± 1.2
m1 = 0.1	38.27 ± 1.2
m1 = 0.118	36.11 ± 1.2
m1 = 0.135	34.85 ± 1.2
m1 = 0.16	33.01 ± 1.1
m1 = 0.183	32.02 ± 1.1
m1 = 0.206	31.74 ± 1.1
m1 = 0.227	31.72 ± 1.1
m1 = 0.247	31.73 ± 1.1
m1 = 0.267	31.72 ± 1.1
